Measured values taken from paper PMC5059489, “Mechanistic evaluation and transcriptional signature of a glutathione S-transferase omega 1 inhibitor” (Nature Communications, 2016).
Values joined by “and” are separate entries in the source; they are usually repeats but may differ in a detail not shown here. Equal values may be shown once.

What was measured:
GSTO1 [1] = molecular target: T1, GSTO1 (Homo sapiens, UniProt P78417); test: In-gel fluorescence competitive CMFDA binding assay, recombinant GSTO1; settings: inhibition of CMFDA binding
T1 sequence (P78417 1-241): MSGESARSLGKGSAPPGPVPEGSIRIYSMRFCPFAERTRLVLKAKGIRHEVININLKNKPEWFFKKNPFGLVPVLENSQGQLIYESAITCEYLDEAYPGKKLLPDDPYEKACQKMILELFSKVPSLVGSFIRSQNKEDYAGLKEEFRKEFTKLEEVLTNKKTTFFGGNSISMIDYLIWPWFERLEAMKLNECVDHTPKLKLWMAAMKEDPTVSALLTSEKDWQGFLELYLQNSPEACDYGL
Description: (§2) Primary screening of GSTO inhibitors was based on competitive inhibition of CMFDA binding to endogenous GSTO. Briefly, HCT116^p53+/+ cells (4 × 10^4 per well) were coated in a 12-well plate. […] Cells were then washed with PBS and lysed using Cell Lytic M buffer (Sigma). […] Gels were immediately scanned on a Typhoon variable mode imager (Amersham Bioscience). Quantification of fluorescent band intensity was done using Image Quant 5.2 software.

HCT116p53+/+ cell = test: MTT cell proliferation at single concentration; format: cell-based, human
How it was run: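 MTT read-out (formazan in DMSO, 570 nm) after 3 h dye incubation at 37 °C, following 72 h inhibitor treatment of overnight-attached cells. Triplicate concentrations; ≥3 independent dose–response runs per line.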

endogenous GSTO1 = molecular target: T2, endogenous GSTO1 (Homo sapiens, UniProt P78417); test: In-gel fluorescence competitive CMFDA binding assay, endogenous GSTO1 in HCT116; settings: for GSTO binding assay (% Inhibition at 10 µM) Endogenous: inhibition of CMFDA binding, HCT116
T2 sequence (P78417 1-241): T1 sequence (P78417 1-241)
Description: as §2

GSTO1 [2] = molecular target: T1, GSTO1; test: GSTO1 substrate assay (reduction of 4-NPG); settings: for IC50: read-out: GSTO substrate assay IC50, cluster screening tables
Description: For activity screening, we adapted a GSTO1 substrate assay that relies on the quantification of the reduction of S-(4-nitrophenacyl)glutathione (4-NPG), a GSTO1-specific substrate[17], using recombinant human GSTO1 in a high-throughput screening format.
Enzyme activity was measured by monitoring the reduction of 4-NPG to 4-nitroacetophenone by GSTO1.

HCT116 = test: MTT cytotoxicity GI50, HCT116; format: cell-based, human
Description: (§1) Cell proliferation was assessed by a MTT assay. Cancer cells were seeded in 96-well microtitre plates and, after overnight attachment, treated with GSTO1 inhibitors. After 72 h, MTT solution (3 mg ml^−1; 20 μl) was added to each well and cells were incubated for 3 h at 37 °C. After incubation, media from each well was removed and the dark blue formazan crystals formed by live cells were dissolved in DMSO (150 μl per well). The absorbance intensity was measured at 570 nm on a microplate reader (Molecular Devices, Sunnyvale, CA, USA). Cell viability after 24 h treatment was assessed using ApoTox-Glo triplex assay (Promega) according to the manufacturer's protocol. At least three independent dose–response experiments with each concentration tested in triplicate were performed for each cell line.

PDI = PDI (Homo sapiens, UniProt P07237); test: PDI activity assay (PDI-catalysed reduction of insulin); format: biochemical; set-up: made in house
Description: The reduction reaction was catalysed by PDI at room temperature, and the resulting aggregation of reduced insulin B chains was measured at 620 nm. % PDI activity was calculated from absorbance values at T=0 and 80 min.

HT29 = test: MTT cytotoxicity GI50, HT29; format: cell-based
Description: as §1

PDI, sequence (P07237 18-508, species assumed): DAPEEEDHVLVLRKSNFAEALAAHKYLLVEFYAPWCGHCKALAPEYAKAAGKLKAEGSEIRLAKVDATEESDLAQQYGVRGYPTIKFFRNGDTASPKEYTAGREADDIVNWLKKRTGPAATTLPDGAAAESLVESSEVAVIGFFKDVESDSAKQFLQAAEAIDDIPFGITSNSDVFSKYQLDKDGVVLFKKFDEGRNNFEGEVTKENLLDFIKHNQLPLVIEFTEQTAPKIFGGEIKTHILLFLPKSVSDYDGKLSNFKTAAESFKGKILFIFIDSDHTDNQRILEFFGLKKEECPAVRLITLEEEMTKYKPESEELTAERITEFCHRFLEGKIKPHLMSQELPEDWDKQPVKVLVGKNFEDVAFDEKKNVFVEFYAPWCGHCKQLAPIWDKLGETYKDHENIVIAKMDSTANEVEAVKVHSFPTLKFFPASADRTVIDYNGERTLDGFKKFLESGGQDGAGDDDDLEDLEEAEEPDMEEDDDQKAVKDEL

Compound | GSTO binding assay (% Inhibition at 10 µM) Recombinant (GSTO1 [1]) [%] | % Inhibition of HCT116p53+/+ cell proliferation at 10 µM (HCT116p53+/+ cell) | GSTO binding assay (% Inhibition at 10 µM) Endogenous (endogenous GSTO1) [%] | GSTO substrate assay % Inhibition at 10 µM (GSTO1 [2]) [%] | GI50 (HCT116) [nM] | IC50 (endogenous GSTO1; read-out: Competitive Binding assay Endogenous GSTO1 IC50) [nM] | Fold selectivity (PDI; GSTO1 versus PDI enzyme inhibition) | IC50 (PDI; inhibition of PDI-catalyzed reduction of insulin) [nM] | GI50 (HT29) [nM] | IC50 (GSTO1 [2]) [nM]
CC(C)C(NC(=O)CCl)c1cccs1 (stereo not shown) [C3-28] | 15.1 | 48.5% and 48.7% | 44.1 | 42.0 |  |  |  |  |  | 
CCOC(=O)c1c(NC(=O)CCl)sc2c1CCCCC2 [C2-16] | 54.7 |  | 53.0 | 73.0 | > 20000 | 520 | 61.1 | 4030 ± 720 | 19800 | 66
NC(=O)CCN(Cc1ccccc1)C(=O)CCl [C4-14] | 45.2 | 70.3% and 75% | 56.8 | 89.1 |  |  |  |  |  | 
CC(=O)c1cc2c(cc1NC(=O)CCl)OCO2 [C1-9] | 56.5 | -1.2% | 39.3 | 12.5 |  |  |  |  |  | 
COc1ccc2cc(CN(C)C(=O)CCl)ccc2c1 [C4-6] | 55.2 | 44.1% and 68.5% | 49.5 | 29.3 |  |  |  |  |  | 
N#Cc1ccccc1S(=O)(=O)N1CCN(C(=O)CCl)CC1 [C5-13] | 61.1 | 81.1% and 55.9% | 66.2 | 98.1 |  |  |  |  |  | 156
O=C(CCl)N1CCN(c2ccccc2F)CC1 [C5-3] | 9.4 | 28.2% | 61.5 | 59.8 |  |  |  |  |  | 
COc1ccc(C2=NN(C(=O)CCl)C(c3cccc(OC)c3OC)C2)cc1 (stereo not shown) [C5-21] | 65.0 | 78.2% and 83.6% | 28.9 | 40.0 |  |  |  |  |  | 
O=C(CCl)Nc1ccnn1Cc1cccc(Cl)c1 [C2-7] | 56.0 | 85.7% and 91% | 55.3 | 79.7 |  |  |  |  |  | 598
